{
  "source": "patent US20150133493A1",
  "about": "“COUMARIN-BASED COMPOUNDS FOR THE TREATMENT OF ALZHEIMER'S DISEASE AND CANCER” (Sloan-Kettering Institute for Cancer Research, priority 2008, published 2015)",
  "key": {"γ-secretase [1]": {"target": "T1, γ-secretase (Homo sapiens, UniProt P49768)", "T1 construct": "endogenous in cells", "experiment": "In vitro γ-secretase activity assay, Aβ40 production (ECL)", "assay_type": "biochemical", "details": "for IC50: in vitro inhibition of γ-secretase activity that generates Aβ40, 2.5 hr at 37° C., ECL detection; for Aβ40/Aβ42 ratio: ratio of IC50 for Aβ40 to IC50 for Aβ42", "experimental": "(§1) FIG. 2. In vitro characterization of coumarin-dimer allosteric GSIs against various γ-secretase cleavage products. The potency of 7 unique coumarin-based γ-secretase inhibitors were evaluated for efficacy against γ-secretase-mediated production of Aβ40, Aβ42, Aβ38, and Notch. Additionally, the pan-GSI Compound E was also examined in these assays. The IC50 values were calculated from the dose response curves using a non-linear regression analysis in Prism software. IC50 values are presented with standard deviation (n=3 for each data point). The three β-amyloid-detection in vitro assays were modified from our previously reported assay (21) using a biotinylated substrate that eliminated the requirement of anti-β-amyloid biotinylated antibody. Ruthenylated antibodies that detected the -40, -42, or -38 cleavage site were incorporated to detect proteolysis indicative of γ-secretase activity. In vitro Notch assay utilized a recombinant transmembrane portion of the Notch peptide and anti-Notch1 SM320 antibody in conjunction with ruthenylated anti-rabbit secondary antibodies. Electrochemiluminescence was quantified on an Analyzer (BioVeris). The selectivity ratio for Aβ42 inhibition over Aβ40 and Notch are indicated in the two far right columns.\nThe assay protocol employed was a modified version of that described in Li et al., 2000, Proc. Nat'l Acad. Sci. USA 97:6183-643, incorporated herein by reference. Briefly, recombinant peptide substrate was incubated with γ-secretase (40 μg/ml) in the presence or absence of test compound. The reaction mixture contained 0.25% CHAPSO, 0.1 μg/μl BSA, protease inhibitor, 50 mM PIPES, pH 7.0, 5 mM MgCl2, 5 mM CaCl2 and 150 mM KCl. The reaction was incubated for 2.5 hr at 37° C. and stopped by adding RIPA buffer (150 mM NaCl, 1.0% NP-40, 0.5% sodium deoxycholate, 0.1% SDS, 50 mM Tris HCl, pH 8.0). The products were detected with various antibody combinations using electrochemiluminescence (ECL) technology as previously described in Li et al., 2000, Proc. Nat'l Acad. Sci. USA 97:6183-643; Lai et al., 2003, J. Biol. Chem. 278: 22475-22481; and Yin et al., 2007, J. Biol. Chem. 282:23639-23644. The amount of product was determined using synthetic peptide or recombinant standards.\n(§2) Cell membranes and solubilized γ-secretase were prepared as described previously (36). The in vitro and cell γ-secretase assays detecting either Aβ38, Aβ40, or Aβ42 cleavage were performed similar as previously described (21, 36). Cleaved product was detected using ruthenylated antibodies that recognize specific APP cleavage sites (Aβ31-38*, G2-10*, or G2-11* antibody for Aβ38, Aβ40, or Aβ42 respectively). The Km and Vmax in the presence and absence of γ-secretase inhibitors were analyzed by non-linear curve fit using the software SigmaPlot 8.0 with the Michaelis-Menten equation (v=Vm [S]/(Km+[S]; v: initial rate; Vm: maximum velocity; Km: the Michaelis-Menten constant, S: substrate)."}, "[2]": {"tested_on": "cells stably transfected with APP", "experiment": "Cell-based assay for production of Aβ38, Aβ40 and Aβ42 peptides (Example 29, FIG. 1)", "details": "increasing concentrations of compound", "experimental": "The following cell-based assay can be used for assessing inhibitory activity of test compounds on γ-secretase activity on APP expressed in stably transfected cells. Cells such as HEK239 or N2A cells that stably express APP are incubated 24-48 hr. in medium to which is added γ-secretase with or without test compound. The conditioned medium is collected. Secreted Aβ peptides are detected by electrochemiluminescence (ECL) technology as previously described, for example, in Li et al., 2000, Proc. Nat'l Acad. Sci. USA 97:6183-643; Lai et al., 2003, J. Biol. Chem. 278: 22475-22481; and Yin et al., 2007, J. Biol. Chem. 282:23639-23644. Concentration of Aβ peptides can be calculated from standard curves that are generated using synthetic peptides using the ECL assay.\nResults of a cell-based assay are provided in FIG. 1 in which cells stably transfected with APP were incubated in medium containing γ-secretase activity and the indicated amounts of compound 37."}, "γ-secretase [3]": {"target": "T1, γ-secretase", "experiment": "In vitro γ-secretase activity assay, Aβ42 production (ECL)", "assay_type": "biochemical", "details": "in vitro inhibition of γ-secretase activity that generates Aβ42; 2.5 hr at 37° C., ECL detection", "experimental": "as §1, with “The potency of 7 unique coumarin-based γ-secretase inhibitors were evaluated for efficacy against γ-secretase-mediated production of Aβ40, Aβ42, Aβ38, and Notch. Additionally, the pan-GSI Compound E was also examined in these assays.” left out, “IC50 values are presented with standard deviation (n=3 for each data point).” left out, “(BioVeris).” for “(BioVeris). The selectivity ratio for Aβ42 inhibition over Aβ40 and Notch are indicated in the two far right columns.”\nBriefly, recombinant peptide substrate was incubated with γ-secretase (40 μg/ml) in the presence or absence of test compound. […] The reaction was incubated for 2.5 hr at 37° C. and stopped by adding RIPA buffer (150 mM NaCl, 1.0% NP-40, 0.5% sodium deoxycholate, 0.1% SDS, 50 mM Tris HCl, pH 8.0). […] The amount of product was determined using synthetic peptide or recombinant standards.\nas §2"}, "[4]": {"tested_on": "N2a mouse neuroblastoma cells that stably express Swedish-mutated APP", "experiment": "Cell-based assay of secreted Aβ42, Aβ40, Aβ38 in APPsw-N2A cells", "details": "24 hrs, in words, CS-1 up to 30 μM", "experimental": "FIG. 3. Cellular evaluation of the coumarin-dimer CS-1 and its selective inhibition of Aβ42. Compounds were incubated with the APPsw-N2A mouse neuroblastoma cells for 24 hours and media were analyzed by biotinylated 4G8 and ruthenylated antibodies specific for each respective cleavage product. […] (d) Immunoprecipitation mass spectrometry analysis of CS-1 effect on secreted β-amyloid species. Aβ peptides were immunoprecipitated using 4G8 antibody and isolated with Protein G+/A agarose beads. Samples were analyzed by MALDI-MS. Samples shown are representative and each data point was performed in triplicate. (e) Cell-based Notch cleavage assay. HEK-293 cells were transfected with ΔE Notch construct and then Compound E and CS-1 were evaluated for their ability to inhibit γ-secretase-mediated Notch intracellular domain production. […] Western blot is representative and was performed in triplicate. (f) Effect of CS-1 on AICD production. N2A APPsw cell membrane was prepared and incubated with the indicated concentrations of CS-1 at 37° C. for 2 hours. The generated AICD and APP-CTFs were detected by Western Blotting using APPc antibody. Western blot is representative and was performed in triplicate.\nWe next set out to determine if the selective inhibition of Aβ42 was maintained in a cell-based system for APP processing. First, we compared our lead compound CS-1 (FIG. 3a) to Compound E (FIG. 3b) and the GSM compound indomethacin (FIG. 3c). N2a mouse neuroblastoma cells that stably express Swedish-mutated APP substrate were treated with the indicated compounds for 24 hrs at 37° C. Following 24 hr incubation period, the medium was collected from the cells and assayed for secreted Aβ42, Aβ40, and Aβ38. […] The result for indomethacin mirrored those findings by Kukar et al. whereby a different cell-based system was utilized (17), further validating our assay system for analysis of these Aβ species. […] This may reflect subtle variations between the cellular and in vitro conformations of γ-secretase. Nevertheless, the cell-based studies confirmed that CS-1 maintains a preference for inhibition of the γ-secretase mediated production of Aβ42 over Aβ40 or Aβ38, which is distinct to previously reported GSMs (17) and inhibitors (14-15, 18).\nas §2"}},
  "note": "Entries after “also recorded” stand apart in the source; their conditions may differ.",
  "data": [
    {"smiles": "O=c1oc2ccccc2c(O)c1C(c1cc(F)c(F)c(F)c1)c1c(O)c2ccccc2oc1=O", "note": "[Compound 37]", "values": [
      {"measurement": "IC50", "setting": "γ-secretase [1]", "value": 0.6, "unit": "µM"},
      {"measurement": "Aβ40/Aβ42 ratio", "setting": "γ-secretase [1]", "value": 3.0},
      {"measurement": "amount of Aβ38 secreted from the cells", "setting": "[2]", "value": "remain relatively constant"},
      {"measurement": "amount of Aβ40 secreted from the cells", "setting": "[2]", "value": "remain relatively constant"},
      {"measurement": "amount of Aβ42 secreted from the cells", "setting": "[2]", "value": "decrease"},
      {"measurement": "IC50", "setting": "γ-secretase [3]", "value": 0.2, "unit": "µM"}
    ]},
    {"smiles": "O=C(CC(c1cc(F)c(F)c(F)c1)c1c(O)c2ccccc2oc1=O)NCc1cc(F)cc(F)c1", "note": "(stereo not drawn) [compound 512]", "values": [
      {"measurement": "IC50", "setting": "γ-secretase [1]", "value": 1.86, "unit": "µM"},
      {"measurement": "Aβ40/Aβ42 ratio", "setting": "γ-secretase [1]", "value": 1.5},
      {"measurement": "IC50", "setting": "γ-secretase [3]", "value": 1.24, "unit": "µM"}
    ]},
    {"smiles": "O=C(Cc1cc(F)cc(F)c1)NCCNC(=O)CC(c1cc(F)c(F)c(F)c1)c1c(O)c2ccccc2oc1=O", "note": "(stereo not drawn) [compound 520]", "values": [
      {"measurement": "IC50", "setting": "γ-secretase [1]", "value": 9.23, "unit": "µM"},
      {"measurement": "Aβ40/Aβ42 ratio", "setting": "γ-secretase [1]", "value": 2.0},
      {"measurement": "IC50", "setting": "γ-secretase [3]", "value": 4.53, "unit": "µM"}
    ]},
    {"smiles": "Cc1coc(=O)c(C(c2cc(F)c(F)c(F)c2)c2c(O)c(C)coc2=O)c1O", "note": "[compound 668]", "values": [
      {"measurement": "IC50", "setting": "γ-secretase [1]", "value": 4.2, "unit": "µM"},
      {"measurement": "Aβ40/Aβ42 ratio", "setting": "γ-secretase [1]", "value": 2.5},
      {"measurement": "IC50", "setting": "γ-secretase [3]", "value": 1.7, "unit": "µM"}
    ]},
    {"smiles": "O=c1oc2ccccc2c(O)c1C(c1ccc(Cl)cc1)c1c(O)c2ccccc2oc1=O", "note": "[compound 729]", "values": [
      {"measurement": "IC50", "setting": "γ-secretase [1]", "value": 1.7, "unit": "µM"},
      {"measurement": "Aβ40/Aβ42 ratio", "setting": "γ-secretase [1]", "value": 1.4},
      {"measurement": "IC50", "setting": "γ-secretase [3]", "value": 1.2, "unit": "µM"}
    ]},
    {"smiles": "O=c1oc2ccccc2c(O)c1C(c1ccc(Br)cc1)c1c(O)c2ccccc2oc1=O", "note": "[compound 730]", "values": [
      {"measurement": "IC50", "setting": "γ-secretase [1]", "value": 1.7, "unit": "µM"},
      {"measurement": "Aβ40/Aβ42 ratio", "setting": "γ-secretase [1]", "value": 1.4},
      {"measurement": "IC50", "setting": "γ-secretase [3]", "value": 1.2, "unit": "µM"}
    ]},
    {"smiles": "O=c1oc2ccccc2c(O)c1C(c1ccc(I)cc1)c1c(O)c2ccccc2oc1=O", "note": "[compound 731]", "values": [
      {"measurement": "IC50", "setting": "γ-secretase [1]", "value": 6.1, "unit": "µM"},
      {"measurement": "Aβ40/Aβ42 ratio", "setting": "γ-secretase [1]", "value": 4.1},
      {"measurement": "IC50", "setting": "γ-secretase [3]", "value": 1.5, "unit": "µM"}
    ]},
    {"smiles": "COc1ccc2c(c1)c(CC(=O)O)c(C)n2C(=O)c1ccc(Cl)cc1", "note": "[indomethacin]", "values": [
      {"measurement": "effect on secreted Aβ38 production", "setting": "[4]", "value": "potently increases; also recorded: significantly enhanced"},
      {"measurement": "effect on secreted Aβ40 production", "setting": "[4]", "value": "little effect; also recorded: no effect"},
      {"measurement": "effect on secreted Aβ42 production", "setting": "[4]", "value": "reduces; also recorded: abrogated"}
    ]}
  ]
}
